PubChem BioAssay AID588598 (Sanford-Burnham Center for Chemical Genomics, 2011)

Biological target: Sentrin-specific protease 6 (Homo sapiens) (UniProt Q9GZR1)
Test: SENP6 protease inhibitors, SAR follow-up, biochemical, luminescence, set 2 (AID 588598)
Conditions: recombinant SENP6, Z-RLRGG-aminoluciferin cleavage, 30 min

Sequence of Sentrin-specific protease 6 (Homo sapiens) (Q9GZR1 628-1112 limits assumed): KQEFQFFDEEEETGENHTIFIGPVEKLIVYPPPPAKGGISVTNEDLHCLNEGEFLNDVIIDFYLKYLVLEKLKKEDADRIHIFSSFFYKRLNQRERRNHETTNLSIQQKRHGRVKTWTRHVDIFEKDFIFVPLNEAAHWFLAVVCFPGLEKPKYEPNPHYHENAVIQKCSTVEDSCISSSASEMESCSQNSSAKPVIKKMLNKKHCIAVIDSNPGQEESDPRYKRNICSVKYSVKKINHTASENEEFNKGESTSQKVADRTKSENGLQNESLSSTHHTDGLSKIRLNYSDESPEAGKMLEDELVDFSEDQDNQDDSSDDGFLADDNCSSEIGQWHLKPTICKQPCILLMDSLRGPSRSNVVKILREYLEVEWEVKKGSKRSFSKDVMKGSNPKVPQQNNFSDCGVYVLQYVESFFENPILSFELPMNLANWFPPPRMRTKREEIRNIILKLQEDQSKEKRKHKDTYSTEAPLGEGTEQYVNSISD

- IC50: 1.3 µM
SMILES: O=C(Nc1nc2ccc(Cl)cc2s1)c1cccs1
